Experimental data reported in publication PMC6556873, “Rapid Covalent-Probe Discovery by Electrophile-Fragment Screening” (Journal of the American Chemical Society, 2019).
Where two headings read alike, the source gives them in different places.

Experiments:
in vitro [1] = test: in vitro; set-up: species or system CCD841, HEK293; settings: human, hb2 cells, read-out: HB-2 Cells Viability (%)
BSA = target: T1, BSA (Bos taurus, UniProt P02769); set-up: Intact protein LC/MS covalent labelling, fragments in pools of five, 200 uM each, 4 °C; settings: 24 h, 4 °C, pool of five; 200 µM; covalent
T1 construct: gene ALB
T1 sequence (P02769 whole entry, the tested form may be a part): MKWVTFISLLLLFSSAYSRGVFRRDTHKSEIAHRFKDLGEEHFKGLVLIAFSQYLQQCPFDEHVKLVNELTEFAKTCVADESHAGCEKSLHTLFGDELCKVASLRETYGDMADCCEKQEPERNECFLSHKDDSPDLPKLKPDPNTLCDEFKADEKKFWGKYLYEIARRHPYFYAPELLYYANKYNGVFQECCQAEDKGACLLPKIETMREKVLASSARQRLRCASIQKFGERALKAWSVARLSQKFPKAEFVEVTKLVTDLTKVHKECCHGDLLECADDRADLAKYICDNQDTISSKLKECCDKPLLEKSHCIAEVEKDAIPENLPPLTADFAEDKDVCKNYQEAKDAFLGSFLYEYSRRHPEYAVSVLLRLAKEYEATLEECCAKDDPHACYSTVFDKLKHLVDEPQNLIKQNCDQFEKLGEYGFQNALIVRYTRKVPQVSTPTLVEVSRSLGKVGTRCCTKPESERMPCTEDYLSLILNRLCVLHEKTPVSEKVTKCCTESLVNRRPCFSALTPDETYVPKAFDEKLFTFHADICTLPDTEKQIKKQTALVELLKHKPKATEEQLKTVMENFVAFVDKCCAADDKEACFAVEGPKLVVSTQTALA

OTUB2 (OTUB2A) = target: T2, OTUB2 (OTUB2A) (Homo sapiens, UniProt Q96DC9); set-up: Intact protein LC/MS covalent labelling, fragments in pools of five, 200 uM each, 4 °C; settings: 24 h, 4 °C, pool of five; 200 µM; covalent
T2 construct: full length residues 1-234, E. coli BL21(DE3)-R3, His tag removed by TEV, construct 27312 Da
T2 sequence (Q96DC9 1-234): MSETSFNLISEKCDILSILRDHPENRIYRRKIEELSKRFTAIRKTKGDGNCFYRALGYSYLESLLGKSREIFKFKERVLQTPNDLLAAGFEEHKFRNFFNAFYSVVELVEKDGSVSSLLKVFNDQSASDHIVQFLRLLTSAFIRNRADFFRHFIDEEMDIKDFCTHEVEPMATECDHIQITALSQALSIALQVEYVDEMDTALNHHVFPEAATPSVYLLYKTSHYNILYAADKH

PCAF = target: T3, PCAF (Homo sapiens, UniProt Q92831); set-up: Intact protein LC/MS covalent labelling, fragments in pools of five, 200 uM each, 4 °C; settings: 24 h, 4 °C, pool of five; 200 µM; covalent
T3 construct: gene KAT2B
T3 sequence (Q92831 whole entry, the tested form may be a part): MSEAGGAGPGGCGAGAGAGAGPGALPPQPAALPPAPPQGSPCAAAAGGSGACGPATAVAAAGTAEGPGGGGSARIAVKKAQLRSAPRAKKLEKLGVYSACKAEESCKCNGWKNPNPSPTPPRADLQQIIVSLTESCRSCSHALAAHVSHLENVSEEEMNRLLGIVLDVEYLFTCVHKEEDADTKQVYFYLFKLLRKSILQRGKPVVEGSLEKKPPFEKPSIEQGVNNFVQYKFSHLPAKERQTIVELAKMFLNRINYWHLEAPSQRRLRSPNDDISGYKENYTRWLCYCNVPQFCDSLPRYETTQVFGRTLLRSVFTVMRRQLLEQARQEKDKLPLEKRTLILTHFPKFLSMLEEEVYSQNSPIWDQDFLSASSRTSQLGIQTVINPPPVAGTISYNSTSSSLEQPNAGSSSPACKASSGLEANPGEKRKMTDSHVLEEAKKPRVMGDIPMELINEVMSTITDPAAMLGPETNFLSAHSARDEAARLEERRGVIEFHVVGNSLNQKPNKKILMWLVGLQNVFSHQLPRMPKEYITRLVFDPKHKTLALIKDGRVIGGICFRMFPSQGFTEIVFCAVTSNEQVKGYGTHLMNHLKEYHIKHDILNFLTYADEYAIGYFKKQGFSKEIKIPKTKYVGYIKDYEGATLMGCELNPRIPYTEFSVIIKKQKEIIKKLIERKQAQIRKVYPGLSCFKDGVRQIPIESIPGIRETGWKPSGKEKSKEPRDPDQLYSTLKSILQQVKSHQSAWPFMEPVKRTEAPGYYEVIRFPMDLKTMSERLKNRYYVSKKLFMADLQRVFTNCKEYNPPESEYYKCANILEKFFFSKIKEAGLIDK

NUDT7 = target: T4, NUDT7 (Homo sapiens, UniProt P0C024); set-up: Intact protein LC/MS covalent labelling, fragments in pools of five, 200 uM each, 4 °C; settings: 24 h, 4 °C, pool of five; 200 µM; covalent
T4 construct: residues 14-235, E. coli, pNIC28-Bsa4, N-terminal His6 tag removed by TEV, construct 26672 Da
T4 sequence (P0C024 14-235): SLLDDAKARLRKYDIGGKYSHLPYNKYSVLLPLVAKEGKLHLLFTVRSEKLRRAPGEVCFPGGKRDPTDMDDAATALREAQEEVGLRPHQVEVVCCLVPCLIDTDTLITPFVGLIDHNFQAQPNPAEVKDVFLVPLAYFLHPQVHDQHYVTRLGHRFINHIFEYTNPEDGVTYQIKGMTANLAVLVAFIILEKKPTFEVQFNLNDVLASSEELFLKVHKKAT

in vitro [2] = test: in vitro; set-up: species or system HB2, CCD841; settings: human, hek293 cells
in vitro [3] = test: in vitro; set-up: species or system HB2, HEK293; settings: human, ccd841 cells

SMILES	BSA (BSA)	OTUB2 (OTUB2 (OTUB2A))	PCAF (PCAF)	NUDT7 (NUDT7)	viability at 48 h, 10 µM (in vitro [1]) [%]	viability at 48 h, 10 µM (in vitro [2]) [%]	viability at 48 h, 10 µM (in vitro [3]) [%]
CN(Cc1cccc(C(F)(F)F)c1)C(=O)CCl [PCM-0102987]	0	0	0	0.09	5.3	6.7	45.2
CN(Cc1nc2ccccc2s1)C(=O)CCl [PCM-0102988]	0	0	0	0.3	9.3	2.9	42.8
O=C(CCl)Nc1ccc(Br)cc1 [PCM-0102992]	0	0.08	0	0.11	12.2	4.4	52.9
C=CC(=O)Nc1ccc(OC)c(F)c1 [PCM-0102995]	0	0	0	0	104	80.5	106
O=C(CCl)N1CCN(C(=O)C2COc3ccccc3O2)CC1 (stereo not drawn) [PCM-0102996]	0	0.13	0	0	19.8	5.8	56.4
O=C(CCl)NNC(=O)CC1CCS(=O)(=O)C1 (stereo not drawn) [PCM-0102998]	0	0.69	0	0	101	112	100
C=CC(=O)N1CCN(C(=O)C2COc3ccccc3O2)CC1 (stereo not drawn) [PCM-0102999]	0	0	0	0	100	88.3	112
O=C(CCl)NC(=O)NC1CCCC1 [PCM-0103001]	0	0	0	0	66.4	66.7	80.2
O=C(CCl)Nc1ccc(F)cc1F [PCM-0103004]	0	0.26	0	0	54.2	32	62.1
C=CC(=O)N1Cc2ccccc2CC1c1nnc(CC)o1 (stereo not drawn) [PCM-0103005]	0	0	0	0	96.8	93.2	79.4
O=C1CN(C(=O)CCl)CCN1 [PCM-0103008]	0	0	0	0	95.3	86.5	92.8
CC(=O)c1cc2c(cc1NC(=O)CCl)OCO2 [PCM-0103010]	0	0	0	0.14	59.9	69.5	86
O=C(CCl)NCC#Cc1cccc(C(F)(F)F)c1 [PCM-0103011]	0	0.84	0	0	56.8	52.5	77.4
NS(=O)(=O)c1ccc(Cl)c(NC(=O)CCl)c1 [PCM-0103012]	0	0.1	0	0	54.7	11.9	67.1
Cc1ccccc1C(=O)NC1CCN(C(=O)CCl)CC1 [PCM-0103013]	0.1	0	0	0	84.4	58.4	76.5
CC(C)C(=O)NNC(=O)CCl [PCM-0103014]	0	0.09	0	0	98.8	126	95.1
O=C(CCl)N1CCN(c2ccccc2[N+](=O)[O-])CC1 [PCM-0103016]	0.16	0.09	0	0.27	8.7	13.4	61.4
Cc1ccc(CN(C)C(=O)CCl)cc1 [PCM-0103017]	0	0	0	0.09	67.7	58.2	73.9
CC1CCC(N(C)C(=O)CCl)CC1 (stereo not drawn) [PCM-0103019]	0	0	0	0	39.2	39.9	40.7

More lines, main results first:

BSA (BSA)	OTUB2 (OTUB2 (OTUB2A))	PCAF (PCAF)	NUDT7 (NUDT7)	SMILES	viability at 48 h, 10 µM (in vitro [1]) [%]	viability at 48 h, 10 µM (in vitro [2]) [%]	viability at 48 h, 10 µM (in vitro [3]) [%]
0	0	0	0	O=C(CCl)NCC1Cc2ccccc2O1 (stereo not drawn) [PCM-0103020]	99.1	87.1	88.9
0	0	0	0	CC(C)(C)C(=O)NC(=O)CCl [PCM-0103021]	105	98.9	116
0	0	0	0.22	O=C(CCl)N1CCN(c2ncc(Cl)cc2Cl)CC1 [PCM-0103022]	3.6	13.4	36.4
0	0	0	0.69	O=C(CCl)N1CCc2sccc2C1c1ccccc1 (stereo not drawn) [PCM-0103024]	4.6	1.9	3
0	0.2	0	0	C=CC(=O)N1CCC2(CCc3ccccc3O2)C1 (stereo not drawn) [PCM-0103025]	101	103	90.8
0	0	0	0.12	CC1CCCCC1N(C)C(=O)CCl (stereo not drawn) [PCM-0103026]	18.3	31.2	57
0	0	0	0.05	COC(=O)c1ccc(C)c(NC(=O)CCl)c1 [PCM-0103027]	34.3	22.1	54.7
0	0	0	0.09	CC1CCc2c(sc(NC(=O)CCl)c2C(N)=O)C1 (stereo not drawn) [PCM-0103029]	21	18.6	63.2
